Legend:
Assay type in all cases: in vivo
[1] = system: morningglory (Ipomoea spp.); assay: Test A pre-/postemergence: morningglory
Method in brief: (§1)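 Soil medium was loam blended with sand; treatments pre- and postemergence were applied concurrently, postemergence at one- to two-leaf stage. Approximately ten days in greenhouse preceded visual comparison with untreated controls, scored 0 (no effect) to 100 (complete control).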

[2] = system: pigweed (Amaranthus retroflexus); assay: Test A pre-/postemergence: pigweed
Method in brief: as §1

[3] = system: wheat (Triticum aestivum); assay: Test A pre-/postemergence: wheat
Method in brief: as §1

corn (Zea mays) [4] = assay: Test A pre-/postemergence: corn
Method in brief: as §1

[5] = system: ryegrass, Italian (Italian ryegrass, Lolium multiflorum); assay: Test C pre-/postemergence: ryegrass, Italian
Method in brief: (§2)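 Visual injury scored 0–100 (100 = complete control) against untreated controls after 13–15 greenhouse days. Surfactant-containing solvent formulations applied either to soil after sowing (loam/sand) or over 1- to 4-leaf plants, 2–18 cm tall.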

wild oat (Avena fatua) = assay: Test C pre-/postemergence: wild oat
Method in brief: as §2

corn (Zea mays) [6] = assay: Test C pre-/postemergence: corn
Method in brief: as §2

[7] = system: large crabgrass (Digitaria sanguinalis); assay: Test C pre-/postemergence: large crabgrass
Method in brief: as §2

[8] = system: johnsongrass (Sorghum halepense); assay: Test C pre-/postemergence: johnsongrass
Method in brief: as §2

[9] = system: morningglory (Ipomoea coccinea); assay: Test C pre-/postemergence: morningglory
Method in brief: as §2

[10] = system: ragweed (common ragweed, Ambrosia elation); assay: Test C pre-/postemergence: ragweed
Method in brief: as §2

[11] = system: chickweed (common chickweed, Stellaria media); assay: Test C postemergence: chickweed
Method in brief: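 Response values are visual ratings, 0 (no effect) to 100 (complete control), made by comparison with untreated controls 13 to 15 days after postemergence treatment of greenhouse-grown potted plants that were 2 to 18 cm high at spraying.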

[12] = Postemergence, 125 g ai/ha, 0 to 100 scale, 0 is no effect, 100 is complete control
[13] = Postemergence, 500 g ai/ha, 0 to 100 scale, 0 is no effect, 100 is complete control
[14] = Preemergence, 125 g ai/ha, 0 to 100 scale where 0 is no effect and 100 is complete control
[15] = Preemergence, 500 g ai/ha, 0 to 100 scale (0 no effect, 100 complete control)
[16] = Postemergence, 31 g ai/ha, scale 0 to 100 (0 no effect, 100 complete control)
[17] = Postemergence, 62 g ai/ha, scale 0 to 100 (0 no effect, 100 complete control)
[18] = Postemergence, 125 g ai/ha, scale 0 to 100, 0 no effect, 100 complete control
[19] = Postemergence, 250 g ai/ha, scale 0 to 100 (0 no effect, 100 complete control)
[20] = Preemergence, 31 g ai/ha, scale 0 (no effect) to 100 (complete control)
[21] = Preemergence, 62 g ai/ha, scale of 0 to 100, 0 is no effect, 100 is complete control
[22] = Preemergence, 125 g ai/ha, scale 0 to 100, 0 no effect, 100 complete control
[23] = Preemergence, 250 g ai/ha, scale 0 to 100, 0 no effect, 100 complete control
[24] = Postemergence, 250 g ai/ha, scale 0 to 100

CCOc1nn(-c2ccc(F)cc2)nc1Cc1ccnc(C(F)F)c1 [Compound 195]
30: Plant response rating, Wheat [3, 12] | Wheat plant response rating [3, 13] | Plant response rating, Corn (corn (Zea mays) [4]; [12]) | Plant response rating, Corn (corn (Zea mays) [4]; [15]) | Plant response rating, Morningglory [9, 20]
85: Plant response rating, Oat, Wild (wild oat (Avena fatua); [19]) | Plant response rating, Ragweed [10, 19]
100: Morningglory plant response rating [1, 13] | Plant response rating, Pigweed [2, 12] | Pigweed plant response rating [2, 13] | Plant response rating, Pigweed [2, 14] | Plant response rating, Pigweed [2, 15] | Plant response rating, Crabgrass, Large [7, 21] | Plant response rating, Crabgrass, Large [7, 22] | Plant response rating, Crabgrass, Large [7, 23] | Plant response rating, Johnsongrass [8, 23]
0: Plant response rating, Corn (corn (Zea mays) [6]; [20])
98: Plant response rating, Crabgrass, Large [7, 20] | Plant response rating, Johnsongrass [8, 22] | Plant response rating, Chickweed ([11]; 125 g ai/ha, scale 0 to 100, 0 no effect, 100 complete control) | Plant response rating, Chickweed ([11]; 250 g ai/ha, scale 0 to 100)
75: Plant response rating, Oat, Wild (wild oat (Avena fatua); [17]) | Plant response rating, Corn (corn (Zea mays) [6]; [17]) | Plant response rating, Morningglory [9, 22]
25: Plant response rating, Ryegrass, Italian [5, 16]
70: Plant response rating, Ragweed [10, 18]
80: Plant response rating, Morningglory [1, 12] | Plant response rating, Ryegrass, Italian [5, 21] | Plant response rating, Oat, Wild (wild oat (Avena fatua); [18]) | Plant response rating, Oat, Wild (wild oat (Avena fatua); [20]) | Plant response rating, Corn (corn (Zea mays) [6]; [24]) | Plant response rating, Johnsongrass [8, 17]
65: Plant response rating, Morningglory [9, 16]
15: Plant response rating, Corn (corn (Zea mays) [6]; [22]) | Plant response rating, Ragweed [10, 20]
60: Plant response rating, Morningglory [1, 15] | Corn plant response rating (corn (Zea mays) [4]; [13]) | Plant response rating, Ryegrass, Italian [5, 18] | Plant response rating, Ryegrass, Italian [5, 19] | Plant response rating, Oat, Wild (wild oat (Avena fatua); [16]) | Plant response rating, Corn (corn (Zea mays) [6]; [16]) | Plant response rating, Crabgrass, Large [7, 17]
95: Plant response rating, Crabgrass, Large [7, 24] | Plant response rating, Johnsongrass [8, 18] | Plant response rating, Johnsongrass [8, 19] | Plant response rating, Morningglory [9, 19] | Plant response rating, Chickweed ([11]; 31 g ai/ha, scale 0 to 100 (0 no effect, 100 complete control)) | Plant response rating, Chickweed ([11]; 62 g ai/ha, scale 0 to 100 (0 no effect, 100 complete control))
20: Plant response rating, Wheat [3, 14] | Plant response rating, Corn (corn (Zea mays) [4]; [14]) | Plant response rating, Ragweed [10, 21] | Plant response rating, Ragweed [10, 22]
5: Plant response rating, Corn (corn (Zea mays) [6]; [21])
55: Plant response rating, Ryegrass, Italian [5, 17] | Plant response rating, Crabgrass, Large [7, 16] | Plant response rating, Johnsongrass [8, 16] | Plant response rating, Ragweed [10, 23]
35: Plant response rating, Corn (corn (Zea mays) [6]; [23])
90: Plant response rating, Ryegrass, Italian [5, 22] | Plant response rating, Ryegrass, Italian [5, 23] | Plant response rating, Oat, Wild (wild oat (Avena fatua); [21]) | Plant response rating, Oat, Wild (wild oat (Avena fatua); [23]) | Plant response rating, Crabgrass, Large [7, 18] | Plant response rating, Morningglory [9, 17] | Plant response rating, Morningglory [9, 18] | Plant response rating, Morningglory [9, 23]
50: Plant response rating, Morningglory [1, 14] | Plant response rating, Wheat [3, 15] | Plant response rating, Ryegrass, Italian [5, 20] | Plant response rating, Morningglory [9, 21] | Plant response rating, Ragweed [10, 17]

— US9302999B2, “Substituted triazoles as herbicides” (E. I. DU PONT DE NEMOURS AND COMPANY, priority 2012, dated 2016)
